Publication PMC5613016, “GRL-09510, a Unique P2-Crown-Tetrahydrofuranylurethane -Containing HIV-1 Protease Inhibitor, Maintains Its Favorable Antiviral Activity against Highly-Drug-Resistant HIV-1 Variants in vitro” (Scientific Reports, 2017)

Columns and labels:
[1] = tested on: HIV-1_9510 ^R 36P; experiment: p24 production inhibition in MT-4 cells; type: cell-based
Description: (§1) The susceptibility of HIV-1LAI or HIV-2ROD to various compounds was determined as previously described[20]–[22]. Briefly, MT-2 cells (10^4/ml) were exposed to 100 TCID50 of HIV-1LAI or HIV-2ROD in the presence or absence of various concentrations of compounds in 96-well plates and were incubated at 37 °C for 7 days. After incubation, 100 μl of the medium was removed from each well, 3-(4,5-dimetylthiazol-2-yl)-2,5-diphenyltetrazolium bromide (MTT) solution (10 μl, 7.5 mg/ml in PBS) was added to each well, followed by incubation at 37 °C for 2 h. […] To determine the sensitivity of clinically isolated HIV-1s to compounds, PHA-PBMC (10^6/ml) were exposed to 50 TCID50 of each HIV-1 and cultured in the presence or absence of various concentrations of compounds in 10-fold serial dilutions in 96-well plates. In determining the drug-susceptibility of certain laboratory HIV-1 strains, MT-4 cells were employed as target cells as previously described[23],[24]. MT-4 cells (10^5/ml) were exposed to 100 TCID50 of drug-resistant HIV-1s in the presence or absence of various concentrations of compounds and were incubated at 37 °C. On day 7, the supernatants were harvested and the amounts of p24 were determined by using a fully-automated chemiluminescent enzyme immunoassay system (Lumipulse f: Fujirebio, Tokyo)[35]–[37]. […] All assays were performed in duplicate, and EC50 shown in this report represent average values of two to four independent experiments. PHA-PBMCs were derived from a single donor in each independent experiment. The research protocols described in the present study were carried out in accordance with relevant guidelines and regulations, and were approved in Ethics Committee for Epidemiological and General Research at the Faculty of Life Sciences, Kumamoto University.

[2] = tested on: HIV-1ATV ^R 5μM; experiment: p24 production inhibition in MT-4 cells; type: cell-based
Description: as §1

[3] = tested on: HIV-1NL4-3; experiment: p24 production inhibition in MT-4 cells; type: cell-based; settings: Human immunodeficiency virus 1, MT4, MT-4 cells
Description: as §1

[4] = tested on: HIV-1LPV ^R 5μM; experiment: p24 production inhibition in MT-4 cells; type: cell-based
Description: as §1

[5] = tested on: HIV-1APV ^R 5μM; experiment: p24 production inhibition in MT-4 cells; type: cell-based
Description: as §1

[6] = tested on: HIV-1MDR/TM; experiment: p24 production inhibition in PHA-PBMC; type: cell-based
Description: as §1

[7] = tested on: HIV-1MDR/B; experiment: p24 production inhibition in PHA-PBMC; type: cell-based
Description: as §1

[8] = tested on: HIV-1ERS104pre (wild-type); experiment: p24 production inhibition in PHA-PBMC; type: cell-based; settings: Human immunodeficiency virus 1, PHA-PBMC, p24 Gag production
Description: as §1

[9] = tested on: HIV-1MDR/G; experiment: p24 production inhibition in PHA-PBMC; type: cell-based
Description: as §1

[10] = tested on: HIV-1BaL (subtype B, R5); experiment: p24 production inhibition in PHA-PBMC; type: cell-based; settings: Human immunodeficiency virus 1, PHA-PBMC, p24 Gag production
Description: as §1

[11] = tested on: HIV-1MDRmix DRV ^R 20P; experiment: p24 production inhibition in PHA-PBMC; type: cell-based
Description: as §1

[12] = tested on: HIV-192UG029 (subtype A, X4); experiment: p24 production inhibition in PHA-PBMC; type: cell-based, HIV-1; settings: Human immunodeficiency virus 1, read-out: EC50 HIV-192UG029 (subtype A, X4)
Description: as §1

[13] = Cytotoxicity against MT-2 cells (MTT assay); type: cell-based; settings: human
Description: as §1

[14] = tested on: laboratory and primary clinical HIV-1 isolates; experiment: Antiviral activity, summary over strains; type: cell-based; settings: Human immunodeficiency virus 1; range over isolates; read-out: EC50 against laboratory and primary clinical HIV-1 isolates
Description: (§2) The susceptibility of HIV-1LAI or HIV-2ROD to various compounds was determined as previously described[20]–[22]. Briefly, MT-2 cells (10^4/ml) were exposed to 100 TCID50 of HIV-1LAI or HIV-2ROD in the presence or absence of various concentrations of compounds in 96-well plates and were incubated at 37 °C for 7 days. After incubation, 100 μl of the medium was removed from each well, 3-(4,5-dimetylthiazol-2-yl)-2,5-diphenyltetrazolium bromide (MTT) solution (10 μl, 7.5 mg/ml in PBS) was added to each well, followed by incubation at 37 °C for 2 h. […] To determine the sensitivity of clinically isolated HIV-1s to compounds, PHA-PBMC (10^6/ml) were exposed to 50 TCID50 of each HIV-1 and cultured in the presence or absence of various concentrations of compounds in 10-fold serial dilutions in 96-well plates. In determining the drug-susceptibility of certain laboratory HIV-1 strains, MT-4 cells were employed as target cells as previously described[23],[24]. MT-4 cells (10^5/ml) were exposed to 100 TCID50 of drug-resistant HIV-1s in the presence or absence of various concentrations of compounds and were incubated at 37 °C. On day 7, the supernatants were harvested and the amounts of p24 were determined by using a fully-automated chemiluminescent enzyme immunoassay system (Lumipulse f: Fujirebio, Tokyo)[35]–[37]. […]

[15] = tested on: HIV-2ROD; experiment: microbe, parasite or virus in culture; type: cell-based
Description: as §1

[16] = tested on: HIV-1LAI; experiment: microbe, parasite or virus in culture; type: cell-based
Description: as §1

[17] = tested on: HIV-1_9510 ^R P36; experiment: Viral growth kinetics in MT-4 cells (p24); type: cell-based
Description: (§3) The GRL-09510-resistant variant at passage 36 was propagated in fresh MT-4 cells without GRL-09510 for 7 days, and aliquoted HIV-1_9510 ^R P36 viral stocks were stored at −80 °C. MT-4 cells (3.2 × 10^5) were exposed to the HIV-1_9510 ^R P36 or wild-type HIV-1NL4-3 preparation containing 10 ng/ml p24 in 6-well plates for 3 hours, and the infected MT-4 cells were washed with fresh medium, divided into 4 fractions and each cultured with or without GRL-09510 (final concentration of MT-4 cells 10^4/ml, and drug concentrations 0, 0.01, 0.1 and 1 μΜ). The amounts of p24 were measured every two days for up to 7 days.

[18] = tested on: HIV-1NL4-3; experiment: Viral growth kinetics in MT-4 cells (p24); type: cell-based; settings: as low as 0.01 µM, 7 days
Description: as §3

[19] = tested on: HIVMDR strains; experiment: p24 production inhibition in PHA-PBMC, summary over HIVMDR strains; type: cell-based, HIV-1; settings: Human immunodeficiency virus 1, range over clinical HIVMDR isolates, read-out: EC50 values against HIVMDR
Description: as §2

[20] = tested on: HIV-1NL4-3 variants selected with ATV, LPV and APV; experiment: p24 assay in MT-4 cells, summary over PI-selected variants; type: cell-based
Description: as §2

[21] = number in parentheses, compared to HIV-1NL4-3
[22] = compared to EC50 for HIV-1ERS104pre
[23] = compared to HIV-1WT/ERS104pre, Supplemental Table 4

COc1ccc(S(=O)(=O)N(CC(C)C)CC(O)C(Cc2ccccc2)NC(=O)OC2C3COC4OCC2C4C3)cc1 (centres unmarked) [GRL-09510]
EC50 ([1]; Human immunodeficiency virus 1, MT4, MT-4 cells, p24 assay, read-out: EC50 HIV-1_9510 ^R 36P): 24 ± 2 nM
fold change of EC50 HIV-19510RP36 ([1]; compared to EC50 for HIV-1NL4-3, Supplemental Table 3): 11
fold change of EC50 HIV-1_9510 ^R 36P ([1]; compared to the value against HIV-1NL4-3): 11
fold change of EC50 HIV-1ATV ^R 5μM [2, 21]: 1
EC50 ([2]; read-out: EC50 HIV-1ATV ^R 5μM, MT-4 cells, p24 Gag production): 3.7 ± 0.9 nM
EC50 ([3]; p24 Gag production, Table 3): 2.8 ± 0.7 nM
EC50 ([3]; p24 assay, Table 4, four to six independent experiments): 2.2 ± 0.9 nM
fold change of EC50 HIV-1LPV ^R 5μM [4, 21]: 1
EC50 ([4]; read-out: EC50 HIV-1LPV ^R 5μM, MT-4 cells, p24 Gag production): 3.9 ± 0.5 nM
fold change in EC50 HIV-1APVR5M ([5]; compared to HIV-1NL4-3, Supplemental Table 4): 2
fold change of EC50 HIV-1APV ^R 5μM [5, 21]: 2
EC50 ([5]; read-out: EC50 HIV-1APV ^R 5μM, MT-4 cells, p24 Gag production): 4.8 ± 0.1 nM
EC50 ([6]; PHA-PBMC, p24 Gag production): 4 ± 0.6 nM
fold change of EC50 HIV-1MDR/TM [6, 22]: 1
EC50 ([7]; PHA-PBMC, p24 Gag production): 3.7 ± 0.1 nM
fold change of EC50 HIV-1MDR/B [7, 22]: 1
EC50 [8]: 3.5 ± 0.1 nM
EC50 ([9]; PHA-PBMC, p24 Gag production): 3.3 ± 1.4 nM
fold change of EC50 HIV-1MDR/G [9, 22]: 1
fold change in EC50 HIV-1MDR/G [9, 23]: 1
EC50 [10]: 3.1 ± 0.4 nM
fold more effective than DRV against HIV-1DRV ^R 20P ([11]; PHA-PBMC, p24): 12 fold
fold change of EC50 HIV-1MDRmix DRV ^R 20P [11, 22]: 7
fold change in EC50 HIV-1MDRmixDRVR20P [11, 23]: 7
EC50 ([11]; read-out: EC50 HIV-1MDRmix DRV ^R 20P, PHA-PBMC, p24 Gag production): 25 ± 1 nM
EC50 [12]: 2.7 ± 0.1 nM
CC50 [13]: 39000 ± 700 nM
EC50 [14]: 1.4 to 2.8 nM
EC50 ([15]; MT-2 cells, 100 TCID50, MTT assay, read-out: EC50 Against HIV-2ROD): 1.8 ± 0.1 nM
Selectivity Index (CC50/EC50) MT2/HIV-2ROD ([15]; ratio of CC50 to EC50 against HIV-2ROD): 21,667
EC50 ([16]; Human immunodeficiency virus 1, MT2, MT-2 cells, 100 TCID50, MTT assay, read-out: EC50 Against HIV-1LAI): 1.4 ± 0.9 nM
Selectivity Index (CC50/EC50) MT2/HIV-1LAI ([16]; ratio of CC50 to EC50 against HIV-1LAI): 27,857
replication of HIV-1_9510 ^R P36 in the presence of drug ([17]; 1 µM): completely suppressed
growth of HIV-1_9510 ^R P36 in the presence of drug ([17]; 0.01 and 0.1 µM, 7-day culture): propagated
growth of HIV-1NL4-3 in the presence of drug [18]: failed to grow
EC50 [19]: 3.2 to 4 nM
EC50 ([20]; Human immunodeficiency virus 1, MT4, MT-4 cells, variants selected with up to 5 µM ATV, LPV, APV, read-out: EC50 against PI-selected HIV-1NL4-3 variants): 3.7 to 4.8 nM
fold-differences of EC50 against PI-selected variants ([20]; compared to against HIV-1NL4-3): 1~2
